Results taken from paper PMC9607644, “Glycoconjugation of Quinoline Derivatives Using the C-6 Position in Sugars as a Strategy for Improving the Selectivity and Cytotoxicity of Functionalized Compounds” (Molecules, 2022).

Key:
HCT-116 cells [1] = assay: Clonogenic assay, HCT-116; format: cell-based, human; details: IC50 concentration 72 h, then 10 days in fresh medium
Method: (§1) MCF-7 and HCT-116 cells were treated with type A glycoconjugates and their ability to proliferate was observed. […] The formed colonies were stained with crystal violet (Figure 5).
(§2) To determine the number of colonies forming by cells after exposure to the test compounds, a clonogenic assay was performed as reported in the literature. The cells were seeded into 6-well plates at a density of 1 × 10^5 (HCT-116) or 2 × 10^5 (MCF-7, NHDF-Neo) per well (3 mL) and allowed to attach for 24 h under standard conditions with 5% CO2 at 37 °C. The following day, the medium was removed and cells were treated with solutions of test compounds in fresh medium at a dose equal to their IC50 values. Control cells were grown with fresh medium supplemented with 0.5% DMSO. After 72 h of incubation, the cells were collected by trypsinization and then reseeded into new 6-well plates at a density of 1000 cells/well/3 mL. The plates with cells were incubated for 10 days under standard conditions with 5% CO2 at 37 °C. After this time, the medium was removed and the cells were washed with PBS, fixed with ice-cold ethanol (-20 °C) for 3 min, and washed again with PBS. Finally, cells were stained with crystal violet (0.01% in H2O; Sigma-Aldrich, Taufkirchen, Germany) for 20 min. The plates were then washed with H2O and allowed to air-dry.

MCF-7 cells [2] = assay: Clonogenic assay, MCF-7; format: cell-based, human; details: IC50 concentration 72 h, then 10 days in fresh medium
Method: as §1, §2

HCT-116 cells [3] = assay: Wound healing assay, HCT-116; format: cell-based, human; details: IC50 concentration, observed for 72 h
Method: (§3) This experiment consisted in making a “wound” in a confluent monolayer of HCT-116 and MCF-7 cells, which were next treated with the test compounds at their IC50 concentrations. […] In the control, cell migration from the edges of the wound is visible, gradually filling the gap. After 72 h, the wounds are almost completely covered with cells. In the same way, cell migration is observed in healthy NHDF cells.
(§4) To analyze the migration properties of cells exposed to test compounds, a wound-healing assay was performed as reported in the literature. The cells were seeded into 6-well plates at a density of 3 × 10^5 (HCT-116) or 4 × 10^5 (MCF-7, NHDF-Neo) per well (3 mL) and allowed to attach for 24 h under standard conditions with 5% CO2 at 37 °C. After forming a confluent monolayer, a linear scratch in each sample with a 200 µL pipette tip was made and the first photo at time zero was taken. The cells were washed with PBS and then treated with solutions of test compounds in a fresh medium at a dose equal to their IC50 values. Control cells were grown with fresh medium supplemented with 0.5% DMSO. The cells were incubated and monitored for 72 h under standard conditions with 5% CO2 at 37 °C. Cell monitoring and photos were taken using Live Cell Movie Analyzer, JuLI™ Br & FL (NanoEnTek Inc., Seoul, Korea).

MCF-7 cells [4] = assay: Wound healing assay, MCF-7; format: cell-based, human; details: IC50 concentration, observed for 72 h
Method: as §3, §4

NHDF-Neo cells = assay: Cell cycle analysis by flow cytometry, NHDF-Neo; format: cell-based, human; details: IC50 dose, 24 h
Description: After determining the type of cell death caused by the test compounds, the flow cytometry technique was used to study their influence on potential changes in the course of the cell cycle of the HCT-116, MCF-7, and NHDF-Neo lines. The cell cycle is the sequence of growth and division of cells, both normal and cancerous. This process begins from the resting phase (G0) through the active growth phases (G1, S, G2), leading to mitosis (M) in which the cell’s nucleus divides. […] After this time, cells were harvested and treated with a buffer to lysate the cells and isolate the cell nuclei. Propidium iodide was used to assess the amount of DNA in particular phases of the cell cycle. Histograms of DNA content in cells are presented in the Supplementary Materials (Figure S74).
The cell cycle and the type of cell death induced by the test compounds were measured by using flow cytometry according to the manufacturer’s protocol. The cells were seeded into 6-well plates at a density of 3 × 10^5 (HCT-116) or 4 × 10^5 (MCF-7, NHDF-Neo) per well (3 mL) and allowed to attach for 24 h under standard conditions with 5% CO2 at 37 °C. The following day, the medium was removed and cells were treated with solutions of test compounds in fresh medium at a dose equal to their IC50 values. Control cells were grown with fresh medium supplemented with 0.5% DMSO. After 24 h of incubation, the cells were collected by trypsinization. Then, samples were centrifuged (3 min, 2000 rpm, RT) and washed with PBS, after which the cells were centrifuged again (3 min, 2000 rpm, RT) and the supernatant was carefully removed. The resulting precipitate contained cells, which were used for flow cytometry experiments.
For cell cycle analysis, the cells were suspended in 300 μL of hypotonic buffer (consisting of: sodium citrate dihydrate 1 g/L, propidium iodide (PI) 1 mg/mL, RNAse A 10 mg/mL (EURx, Gdańsk, Poland), Triton X-100 1:9), mixed gently and incubated in the dark at room temperature for 20–30 min. […]

ctDNA = assay: Intercalation study, UV-Vis absorption titration with ctDNA; format: binding, calf; details: 50 µM glycoconjugate, ctDNA 3 to 300 µM, Tris-HCl pH 7.5, 2 h 37 °C
Method: Due to the steric and electron features, quinoline-based compounds are well-known DNA intercalating agents. Therefore, the antiproliferative action of quinoline-related compounds can be related among others to intercalating between two adjacent base pairs of duplex DNA and inhibiting nucleic acid synthesis. […] The binding of the A-2 and E-2 to ctDNA has been characterized through absorption titration, which is an effective technique for DNA intercalation studies. The experiments were carried out for a constant concentration of glycoconjugates with increasing concentrations of ctDNA.
For the DNA binding studies, all experiments were carried out in molecular biology grade Tris-HCl buffer at pH 7.5 (EURx, Poland). The purity of the calf thymus DNA (ctDNA) (Sigma-Aldrich, St. Louis, MO, USA) was determined by measuring the ratio of UV absorbance at 260 and 280 nm. Here, the ratio was in the range of 1.8–1.9, indicating the DNA was sufficiently free from protein. The concentration of ctDNA was determined from the absorbance at 260 nm and using a molar absorption coefficient ε = 6600 M^−1 cm^−1 [68]. […] The samples were incubated for 2 h at 37 °C with gently shaking and the absorption spectra were measured using a UV–Vis-NIR spectrophotometer JASCO V-570 (Tokyo, Japan) in the range of 200–400 nm.

SMILES | clonogenic potential, HCT-116 (HCT-116 cells [1]) | clonogenic potential, MCF-7 (MCF-7 cells [2]) | cell migration, HCT-116 (HCT-116 cells [3]) | cell migration, MCF-7 (MCF-7 cells [4]) | cell cycle phase distribution in words, NHDF-Neo (NHDF-Neo cells) | binding to ctDNA, change of UV-Vis absorption spectrum (ctDNA)
CC(=O)OC1O[C@H](Cn2cc(COc3cccc4cccnc34)nn2)[C@@H](OC(C)=O)[C@H](OC(C)=O)[C@H]1OC(C)=O (stereo partly drawn) [Compound A-1] | able to decrease the clonogenic potential | able to decrease the clonogenic potential | significantly slower migration | significantly slower migration | slightly decreased the number of cells in the G2/M phase with a simultaneous slight increase in the percentage of cells in the G0/G1 phase | 
OC1O[C@H](Cn2cc(COc3cccc4cccnc34)nn2)[C@@H](O)[C@H](O)[C@H]1O (stereo partly drawn) [Compound A-2] | able to decrease the clonogenic potential | able to decrease the clonogenic potential | significantly slower migration | significantly slower migration | slightly decreased the number of cells in the G2/M phase with a simultaneous slight increase in the percentage of cells in the G0/G1 phase | hypochromic and bathochromic effects
OC[C@H]1O[C@@H](n2cc(COc3cccc4cccnc34)nn2)[C@H](O)[C@@H](O)[C@@H]1O [Compound E-2, reference compound] |  |  |  |  |  | hypochromic and bathochromic effects
